Nc1cncc(Cl)n1
solubility (mole fraction)
Settings | in DMF | in acetone | in acetonitrile | in ethanol | in ethylene glycol | in isopropanol | in methanol | in n-propanol | in propylene glycol | in water
278.15 K | 0.00915 | 0.0117 | 0.00984 | 0.00159 | 0.000717 | 0.00421 | 0.00114 | 0.00494 | 0.000917 | 3.62e-05
283.15 K | 0.0111 | 0.0141 | 0.0119 | 0.0019 | 0.000905 | 0.00503 | 0.00135 | 0.00588 | 0.00115 | 4.42e-05
288.15 K | 0.0135 | 0.0167 | 0.0143 | 0.00226 | 0.00113 | 0.00608 | 0.00164 | 0.00709 | 0.00139 | 5.21e-05
293.15 K | 0.0162 | 0.0198 | 0.0172 | 0.00272 | 0.00141 | 0.00737 | 0.00196 | 0.00858 | 0.00171 | 6.29e-05
298.15 K | 0.0194 | 0.0231 | 0.0209 | 0.00323 | 0.00172 | 0.00874 | 0.00244 | 0.0105 | 0.00204 | 7.43e-05
303.15 K | 0.023 | 0.0269 | 0.0248 | 0.00384 | 0.00204 | 0.0104 | 0.00293 | 0.0127 | 0.00237 | 8.97e-05
308.15 K | 0.0271 | 0.0314 | 0.0295 | 0.00453 | 0.00239 | 0.0122 | 0.00347 | 0.0152 | 0.00281 | 0.000105
313.15 K | 0.0322 | 0.0371 | 0.0352 | 0.0053 | 0.00281 | 0.0146 | 0.00415 | 0.0181 | 0.00327 | 0.000123
318.15 K | 0.0378 | 0.0431 | 0.041 | 0.00624 | 0.00325 | 0.017 | 0.00489 | 0.0211 | 0.00379 | 0.000143
323.15 K | 0.0442 | 0.0505 | 0.0488 | 0.00756 | 0.00377 | 0.0198 | 0.00575 | 0.0246 | 0.00448 | 0.000168

From BigSolDB 2.1
